Experimental data reported in ChEMBL document CHEMBL1201862, “PubChem BioAssay data set” (2004).
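The compound was tested at five concentrations on cells cultured in 96-well plates, with a 48-hour exposure period. At the GI50, growth is halved.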 Activity calls are given as the source filed them. No stated cut-off is given here; in the data, active = GI50 up to about 1.1 µM and inactive = higher.

Columns and labels:
Assay in all cases: inhibition of tumour cell growth, NCI panel, 48 h
786-0 = test system: 786-0
A498 = test system: A498
A549 = test system: A549
ACHN = test system: ACHN
BT-549 = test system: BT-549
CAKI-1 = test system: CAKI-1
CCRF-CEM = test system: CCRF-CEM
COLO 205 = test system: COLO 205
EKVX = test system: EKVX
HCC 2998 = test system: HCC 2998
HCT-116 = test system: HCT-116
HCT-15 = test system: HCT-15
HL-60 = test system: HL-60
HT-29 = test system: HT-29
Hs-578T = test system: Hs-578T
IGROV-1 = test system: IGROV-1
K562 = test system: K562
LOX IMVI = test system: LOX IMVI
M14 = test system: M14
MDA-MB-435 = test system: MDA-MB-435
MDA-N = test system: MDA-N
MOLT-4 = test system: MOLT-4
NCI-H23 = test system: NCI-H23
NCI/ADR-RES = test system: NCI/ADR-RES
OVCAR-5 = test system: OVCAR-5
OVCAR-8 = test system: OVCAR-8
PC-3 = test system: PC-3
RPMI-8226 = test system: RPMI-8226
RXF 393 = test system: RXF 393
SF-268 = test system: SF-268
SF-539 = test system: SF-539
SK-MEL-28 = test system: SK-MEL-28
SK-MEL-2 = test system: SK-MEL-2
SK-MEL-5 = test system: SK-MEL-5
SK-OV-3 = test system: SK-OV-3
SN12C = test system: SN12C
SNB-19 = test system: SNB-19
SNB-75 = test system: SNB-75
SR = test system: SR
SW-620 = test system: SW-620
T47D = test system: T47D
TK-10 = test system: TK-10
U-251 = test system: U-251
UACC-257 = test system: UACC-257
UO-31 = test system: UO-31
DU-145 = test system: DU-145
HOP-62 = test system: HOP-62
HOP-92 = test system: HOP-92
KM12 = test system: KM12
MCF7 = test system: MCF7
MDA-MB-231 = test system: MDA-MB-231
Malme-3M = test system: Malme-3M
NCI-H226 = test system: NCI-H226
NCI-H460 = test system: NCI-H460
NCI-H522 = test system: NCI-H522
OVCAR-3 = test system: OVCAR-3
OVCAR-4 = test system: OVCAR-4
SF-295 = test system: SF-295
UACC-62 = test system: UACC-62

For `O=C(Nc1ccc(C(F)(F)F)cc1)NC(F)(F)F`, the GI50 (786-0) was > 100 µM (inactive), the GI50 (A498) was > 100 µM (inactive) and the GI50 (A549) was > 100 µM (inactive). The GI50 (ACHN) was > 100 µM (inactive), the GI50 (BT-549) was > 100 µM (inactive) and the GI50 (CAKI-1) was 34.5 µM (inactive). The GI50 (CCRF-CEM) was > 100 µM (inactive), the GI50 (COLO 205) was > 100 µM (inactive) and the GI50 (EKVX) was > 100 µM (inactive). The GI50 (HCC 2998) was > 100 µM (inactive), the GI50 (HCT-116) was > 100 µM (inactive) and the GI50 (HCT-15) was greater than 100 µM. The GI50 (HL-60) was > 100 µM (inactive), the GI50 (HT-29) was > 100 µM (inactive) and the GI50 (Hs-578T) was > 100 µM (inactive). For the same molecule, the GI50 (IGROV-1) was > 100 µM (inactive), the GI50 (K562) was > 100 µM (inactive) and the GI50 (LOX IMVI) was > 100 µM (inactive). For the same molecule, the GI50 (M14) was > 100 µM (inactive), the GI50 (MDA-MB-435) was > 100 µM (inactive) and the GI50 (MDA-N) was > 100 µM (inactive). The GI50 (MOLT-4) was > 100 µM (inactive), the GI50 (NCI-H23) was > 100 µM (inactive) and the GI50 (NCI/ADR-RES) was > 100 µM (inactive). For the same molecule, the GI50 (OVCAR-5) was > 100 µM (inactive), the GI50 (OVCAR-8) was > 100 µM (inactive) and the GI50 (PC-3) was > 100 µM (inactive). The GI50 (RPMI-8226) was > 100 µM (inactive), the GI50 (RXF 393) was > 100 µM (inactive) and the GI50 (SF-268) was > 100 µM (inactive). The GI50 (SF-539) was > 100 µM (inactive), the GI50 (SK-MEL-28) was > 100 µM (inactive) and the GI50 (SK-MEL-2) was > 100 µM (inactive). For the same molecule, the GI50 (SK-MEL-5) was > 100 µM (inactive), the GI50 (SK-OV-3) was > 100 µM (inactive) and the GI50 (SN12C) was > 100 µM (inactive). The GI50 (SNB-19) was > 100 µM (inactive), the GI50 (SNB-75) was > 100 µM (inactive) and the GI50 (SR) was > 100 µM (inactive). The GI50 (SW-620) was > 100 µM (inactive), the GI50 (T47D) was > 100 µM (inactive) and the GI50 (TK-10) was 35.9 µM (inactive). For the same molecule, the GI50 (U-251) was > 100 µM (inactive), the GI50 (UACC-257) was > 100 µM (inactive) and the GI50 (UO-31) was > 100 µM (inactive).

In the case of `CCN1C(=O)C(=C/C=C/C=C2/N(C)c3ccccc3C2(C)C)C(=O)N(CC)C1=S`, the GI50 (786-0) is reported as 42.2 µM (inactive), the GI50 (A498) is reported as > 100 µM (inactive) and the GI50 (A549) is reported as > 100 µM (inactive). The GI50 (ACHN) was 53.6 µM (inactive), the GI50 (BT-549) was 13.6 µM (inactive) and the GI50 (CAKI-1) was > 100 µM (inactive). For the same molecule, the GI50 (CCRF-CEM) was > 100 µM (inactive), the GI50 (COLO 205) was > 100 µM (inactive) and the GI50 (DU-145) was 64.7 µM (inactive). The GI50 (EKVX) was > 100 µM (inactive), the GI50 (HCT-116) was > 100 µM (inactive) and the GI50 (HCT-15) was greater than 100 µM. The GI50 (HL-60) was > 100 µM (inactive), the GI50 (HOP-62) was 32.5 µM (inactive) and the GI50 (HOP-92) was > 100 µM (inactive). For the same molecule, the GI50 (HT-29) was 55.6 µM (inactive), the GI50 (Hs-578T) was > 100 µM (inactive) and the GI50 (IGROV-1) was > 100 µM (inactive). The GI50 (K562) was 58.6 µM (inactive), the GI50 (KM12) was > 100 µM (inactive) and the GI50 (LOX IMVI) was 21.5 µM (inactive). The GI50 (M14) was > 100 µM (inactive), the GI50 (MCF7) was > 100 µM (inactive) and the GI50 (MDA-MB-231) was > 100 µM (inactive). For the same molecule, the GI50 (MDA-MB-435) was > 100 µM (inactive), the GI50 (MDA-N) was > 100 µM (inactive) and the GI50 (Malme-3M) was > 100 µM (inactive). For the same molecule, the GI50 (NCI-H226) was > 100 µM (inactive), the GI50 (NCI-H23) was > 100 µM (inactive) and the GI50 (NCI-H460) was 38.9 µM (inactive). For the same molecule, the GI50 (NCI-H522) was > 100 µM (inactive), the GI50 (NCI/ADR-RES) was > 100 µM (inactive) and the GI50 (OVCAR-3) was 36.4 µM (inactive). For the same molecule, the GI50 (OVCAR-4) was 33 µM (inactive), the GI50 (OVCAR-5) was > 100 µM (inactive) and the GI50 (OVCAR-8) was > 100 µM (inactive). For the same molecule, the GI50 (RPMI-8226) was > 100 µM (inactive), the GI50 (RXF 393) was 39.6 µM (inactive) and the GI50 (SF-268) was 99.3 µM (inactive). For the same molecule, the GI50 (SF-295) was 61.5 µM (inactive), the GI50 (SF-539) was 78.3 µM (inactive) and the GI50 (SK-MEL-2) was > 100 µM (inactive). For the same molecule, the GI50 (SK-MEL-5) was > 10 µM (inactive), the GI50 (SK-OV-3) was 36.3 µM (inactive) and the GI50 (SN12C) was > 100 µM (inactive). The GI50 (SNB-19) was > 100 µM (inactive), the GI50 (SNB-75) was > 100 µM (inactive) and the GI50 (SR) was > 10 µM (inactive). The GI50 (SW-620) was > 100 µM (inactive), the GI50 (T47D) was 82.4 µM (inactive) and the GI50 (TK-10) was > 100 µM (inactive). For the same molecule, the GI50 (UACC-257) was 56.1 µM (inactive), the GI50 (UACC-62) was > 100 µM (inactive) and the GI50 (UO-31) was > 100 µM (inactive).
